Data as given in patent publication US20080145313A1, “Compositions and Methods for the Treatment and Prevention of Neoplastic Disorders” (Genesis Research & Development Corporation Limited, priority 2006, published 2008).

These substances were tested on A549 cells (assay: Growth inhibition of siRNA-transfected A549 cells, SYBR Green I DNA content). Settings: 10 nM siRNA; DNA content 96 hours after transfection.
Format: cell-based, human
Procedure: A549 cells (human lung cancer cell line; ATCC No. CCL-185), SK-MeI-5 cells (human melanoma cell line; ATCC No. HTB-70), MCF-7 cells (human adenocarcinoma cell line; ATCC No. HTB-22), HCT-116 cells (colorectal carcinoma; ATCC CCL-247) and HCT-116 p53 null cells (derived from ATCC No. CCL-247; Bunz et al., Science 282:1497-1501, 1998) were cultured in RPMI 1640 medium with 10% v/v heat-inactivated fetal calf serum (FCS). Cells were seeded at a density of 5×10^4 cells/cm^2 in multi-well tissue culture plates. Sequences of Stealth™ siRNA duplexes (Invitrogen) targeting human ribonucleotide reductase subunit 1 (SEQ ID NO: 22) and subunit 2 (SEQ ID NO; 38) are given in SEQ ID NO: 4830-4832 (DNA), and SEQ ID NO: 5136-5138 (RNA) for RRM1, and SEQ ID NO: 5306-5308 (DNA), and SEQ ID NO: 5303-5305 (RNA) for RRM2. siRNAs were transfected at different concentrations into cells using Lipofectamine™ RNAiMAX transfection reagent (Invitrogen). Non-specific siRNA (SEQ ID NO: 4804 and 4805 (DNA), and SEQ ID NO: 5301 and 5302 (RNA)) were used as controls. The cellular DNA content was measured using a SYBR Green I-based fluorometric assay at 24, 48, 72 and 96 hours after transfection (120 hours for the MCF-7 cells), as follows. At the indicated time points following reverse transfection, cells were harvested and frozen at −80° C. overnight. Cells were thawed and cell lysis buffer (phosphate-buffered saline (PBS) containing 1% Triton X-100, pH 7) and SYBR Green I (1:10^5 V/V; Invitrogen) was added to the wells and incubated overnight in the dark at 4° C.
The following day, cell lysates were mixed thoroughly, and DNA fluorescence was measured with a Wallac Victor^2 plate reader (Turku, Finland) set at an excitation frequency of 485 nm and measuring emission at 535 nm.
To determine the duration of the knock-down effect of RRM1-targeting siRNA, A549 cells were reverse transfected with 1 or 10 nM RRM1-3 (SEQ ID NO: 4832 (DNA, and SEQ ID NO: 5138 (RNA)) or control siRNA (SEQ ID NO: 4804 (DNA), and SEQ ID NO: 5301 (RNA)), and growth followed over time. Growth inhibition was measured daily as described above for up to ten days. RRM1-3-mediated RRM1 silencing inhibited growth for at least 10 days post-transfection at both 1 and 10 nM (FIG. 11).
siRNA-mediated inhibition of cancer cell growth was determined in A549 cells as follows. A549 cells (human lung cancer cell line; ATCC No. CCL-185) were cultured in RPMI 1640 medium with 10% v/v heat-inactivated fetal calf serum. Cells were seeded at a density of 5×10^3 cells/cm^2 in multi-well tissue culture plates. Stealth™ siRNA duplexes (Invitrogen) targeting genes involved in cancer energy and metabolism pathways and listed in Table 9, were transfected at 10 nM into cells using Lipofectamine™ RNAiMAX transfection reagent (Invitrogen). Non-specific siRNA (SEQ ID NO: 4804 and 4805 (DNA), and SEQ ID NO: 5301 and 5302 (RNA)) were used as controls. The cellular DNA content was measured using a SYBR Green I-based fluorometric assay at 96 hours after transfection. The cells were harvested and frozen at −80° C. overnight. Cells were thawed and cell lysis buffer (phosphate-buffered saline (PBS) containing 1% Triton X-100, pH 7) and SYBR Green I (1:10^5 v/v; Invitrogen) was added to the wells and incubated overnight in the dark at 4° C. The following day, cell lysates were mixed thoroughly, and DNA fluorescence was measured with a Wallac Victor^2 plate reader (Turku, Finland) set at an excitation frequency of 485 nm and measuring emission at 535 nm.
Three different siRNAs were tested for each target gene. The average fluorescence units from three replicate wells, representing the amount of DNA per well, were used to determine the effect on growth inhibition. The results are given in Table 10 (energy and metabolism gene targets) and Table 11 (transporter gene targets).
siRNA-mediated RNAi was also determined on a panel of different cell lines. […]

Substance | Growth Inhibition in A549 cells
SEQ ID NO: 4806: siRNA targeting ARNT (HIF-1β) (chain 1 ATCAGTGGATGTGTTGCCAGTTCCC; chain 2 AUCAGUGGAUGUGUUGCCAGUUCCC; chemistry not given here; one strand in two spellings) | − (no growth inhibition with any siRNA)
SEQ ID NO: 4807: siRNA targeting ARNT (HIF-1β) (chain 1 TGCACCTGATCATAGAGTGTGCTGC; chain 2 UGCACCUGAUCAUAGAGUGUGCUGC; chemistry not given here; one strand in two spellings) | + (inhibits by at least 50%)
SEQ ID NO: 4808: siRNA targeting ARNT (HIF-1β) (chain 1 TCTCATGGAAGACTGCTGACCTTCC; chain 2 UCUCAUGGAAGACUGCUGACCUUCC; chemistry not given here; one strand in two spellings) | − (no growth inhibition with any siRNA)
SEQ ID NO: 4809: siRNA targeting H6PD (G6PDH) (chain 1 TTTGCCAGACATCAGGATGAAAGGC; chain 2 UUUGCCAGACAUCAGGAUGAAAGGC; chemistry not given here; one strand in two spellings) | ++ (inhibits by at least 75%)
SEQ ID NO: 4810: siRNA targeting H6PD (G6PDH) (chain 1 TCTTGAACAAGATCCGAGCGTAGCC; chain 2 UCUUGAACAAGAUCCGAGCGUAGCC; chemistry not given here; one strand in two spellings) | − (no growth inhibition with any siRNA)
SEQ ID NO: 4811: siRNA targeting H6PD (G6PDH) (chain 1 TTATGGAGACATGTCCCTGGAGCTC; chain 2 UUAUGGAGACAUGUCCCUGGAGCUC; chemistry not given here; one strand in two spellings) | − (no growth inhibition with any siRNA)
SEQ ID NO: 4812: siRNA targeting HK-II (chain 1 ATACTGGTCAACCTTCTGCACTTGG; chain 2 AUACUGGUCAACCUUCUGCACUUGG; chemistry not given here; one strand in two spellings) | − (no growth inhibition with any siRNA)
SEQ ID NO: 4814: siRNA targeting HK-II (chain 1 TTAACAATGATGCTGTCGTCACAGG; chain 2 UUAACAAUGAUGCUGUCGUCACAGG; chemistry not given here; one strand in two spellings) | − (no growth inhibition with any siRNA)
SEQ ID NO: 4815: siRNA targeting LDHA/5 (chain 1 ATTAAGACGGCTTTCTCCCTCTTGC; chain 2 AUUAAGACGGCUUUCUCCCUCUUGC; chemistry not given here; one strand in two spellings) | − (no growth inhibition with any siRNA)
SEQ ID NO: 4816: siRNA targeting LDHA/5 (chain 1 AAATATGTTCACGTTACGCTGGACC; chain 2 AAAUAUGUUCACGUUACGCUGGACC; chemistry not given here; one strand in two spellings) | + (inhibits by at least 50%)
SEQ ID NO: 4817: siRNA targeting LDHA/5 (chain 1 TATACTCTCTGCCAAATCTGCTACA; chain 2 UAUACUCUCUGCCAAAUCUGCUACA; chemistry not given here; one strand in two spellings) | − (no growth inhibition with any siRNA)
SEQ ID NO: 4818: siRNA targeting PFKL (chain 1 AATGTCTGTCTTCATCTTCTCCGTC; chain 2 AAUGUCUGUCUUCAUCUUCUCCGUC; chemistry not given here; one strand in two spellings) | − (no growth inhibition with any siRNA)
SEQ ID NO: 4819: siRNA targeting PFKL (chain 1 TAGTAGTCATGGCACTTCTCGTTCC; chain 2 UAGUAGUCAUGGCACUUCUCGUUCC; chemistry not given here; one strand in two spellings) | − (no growth inhibition with any siRNA)
SEQ ID NO: 4820: siRNA targeting PFKL (chain 1 TAGTCTCTGAGATCTTACCTTCCGC; chain 2 UAGUCUCUGAGAUCUUACCUUCCGC; chemistry not given here; one strand in two spellings) | − (no growth inhibition with any siRNA)
SEQ ID NO: 4821: siRNA targeting PRPS1 (chain 1 AATTGTCATTGATTTCGCCACAACC; chain 2 AAUUGUCAUUGAUUUCGCCACAACC; chemistry not given here; one strand in two spellings) | − (no growth inhibition with any siRNA)
SEQ ID NO: 4822: siRNA targeting PRPS1 (chain 1 TCCACATTCAGCCTGTCTGCAATGG; chain 2 UCCACAUUCAGCCUGUCUGCAAUGG; chemistry not given here; one strand in two spellings) | − (no growth inhibition with any siRNA)
SEQ ID NO: 4823: siRNA targeting PRPS1 (chain 1 TCAAGATGGCATAAACTCTGGTGGC; chain 2 UCAAGAUGGCAUAAACUCUGGUGGC; chemistry not given here; one strand in two spellings) | + (inhibits by at least 50%)
SEQ ID NO: 4824: siRNA targeting CPS1 (chain 1 ATATGATGCAGCCACCACATGCCTC; chain 2 AUAUGAUGCAGCCACCACAUGCCUC; chemistry not given here; one strand in two spellings) | ++ (inhibits by at least 75%)

What follows are substances tested on target transcript mRNA in A549 cells (assay: Level of mRNA of target transcript in A549 cells by quantitative RT-PCR (Tables 12 and 13)). Settings: 0.1 nM siRNA, 24 h post-transfection.
Format: cell-based, human
Procedure: A549 cells were transfected as described before with 0.1, 1.0 and 10 nM siRNA as listed in Tables 10 and 11 and the relative mRNA levels quantified 24 h post-transfection. RNA was purified from cells using Trizol® extraction as per the manufacturer's protocol (Invitrogen). cDNA was prepared by digesting approximately 200 ng purified RNA with DNAse I (Invitrogen) for 15 minutes at room temperature, followed by 15 minutes at 65° C. in the presence of 25 mM EDTA. 30 ng random primers were added and incubated for 10 minutes at 65° C., 1 minute on ice; Superscript® III polymerase (Invitrogen) was added in presence of 5 nM DTT (Invitrogen) and 1 mM deoxyribonucleotides (Invitrogen), and the reaction incubated at 25° C. for 5 minutes, followed by an hour at 50° C. cDNA was diluted 1:3 in 10 mM Tris pH 7.0, and quantitative RT-PCR carried out on an ABI Prism 7900HT (Applied Biosciences, Inc., Foster City, Calif.) using FastStart TaqMan SYBRGreen (Roche, Basel, Switzerland) or Platinum SYBR Green (Invitrogen) and 360 nM of the primers specific for gene targets and housekeeping genes HPRT and Lamin. Reduction in target mRNA levels following siRNA transfection are given in Tables 12 and 13, together with the gene specific primer sequences. Primer sequences used for the housekeeping genes HPRT and Lamin are given in SEQ ID NO: 4885-4888.

Substance | mRNA knockdown of transporter gene target transcript, 0.1 nM
SEQ ID NO: 4915: siRNA targeting SLC19A2 (ThTr1) (chain 1 ATGACATTCAGGCTGAACAGCGACC; chain 2 AUGACAUUCAGGCUGAACAGCGACC; chemistry not given here; one strand in two spellings) | ++ (70-90% mRNA knockdown)

Same assay, conditions: 1 nM siRNA, 24 h post-transfection

Substance | mRNA knockdown of transporter gene target transcript, 1 nM
SEQ ID NO: 4915: siRNA targeting SLC19A2 (ThTr1) (chain 1 ATGACATTCAGGCTGAACAGCGACC; chain 2 AUGACAUUCAGGCUGAACAGCGACC; chemistry not given here; one strand in two spellings) | ++ (70-90% mRNA knockdown)
